# Columns and labels:
# Type in all cases: functional
# Candida albicans [1] = assay: Antifungal activity against Candida albicans isolate 6 by broth microdilution method
# Candida albicans [2] = assay: Antifungal activity against Candida albicans isolate 14 by broth microdilution method
# Candida albicans [3] = assay: Antifungal activity against Candida albicans isolate 177 by broth dilution method
# Candida albicans [4] = assay: Antifungal activity against Candida albicans isolate 12 harboring ERG3 W332R mutant gene by broth microdilution method
# Candida albicans [5] = assay: Antifungal activity against Candida albicans isolate 488 harboring ERG3 H243N, T330A, A351V and ERG11 D225G, E266D, E391G, V488I mutant genes by broth microdilution method
# Candida albicans [6] = assay: Antifungal activity against Candida albicans isolate 490 harboring ERG3 D147G, T330A, A351V and ERG11 F72S, T229A, E266D, N440S, V488I, R523G mutant genes by broth microdilution method
# Candida albicans [7] = assay: Antifungal activity against Candida albicans isolate 1008 harboring ERG3 K97E, L193P, V237A, A351V, A353T and ERG11 E266D mutant genes by broth microdilution method
# Candida albicans [8] = assay: Antifungal activity against Candida albicans isolate 6 assessed as ergosterol content in total sterol composition at 0.5 times MIC by GC-MS analysis
# Candida albicans [9] = assay: Antifungal activity against Candida albicans isolate 14 assessed as ergosterol content in total sterol composition at 0.5 times MIC by GC-MS analysis
# Candida albicans [10] = assay: Antifungal activity against Candida albicans isolate 177 assessed as ergosterol content in total sterol composition at 0.5 times MIC by GC-MS analysis
# Candida albicans [11] = assay: Antifungal activity against Candida albicans isolate 12 harboring ERG3 W332R mutant gene assessed as ergosterol content in total sterol composition at 0.5 times MIC by GC-MS analysis
# Candida albicans [12] = assay: Antifungal activity against Candida albicans isolate 488 harboring ERG3 H243N, T330A, A351V and ERG11 D225G, E266D, E391G, V488I mutant genes assessed as ergosterol content in total sterol composition at 0.5 times MIC by GC-MS analysis
# Candida albicans [13] = assay: Antifungal activity against Candida albicans isolate 490 harboring ERG3 D147G, T330A, A351V and ERG11 F72S, T229A, E266D, N440S, V488I, R523G mutant genes assessed as ergosterol content in total sterol composition at 0.5 times MIC by GC-MS analysis
# Candida albicans [14] = assay: Antifungal activity against Candida albicans isolate 12 harboring ERG3 W332R mutant gene assessed as ergosta 7,22-dienol content in total sterol composition at 0.5 times MIC by GC-MS analysis
# Candida albicans [15] = assay: Antifungal activity against Candida albicans isolate 177 assessed as 14alpha-methyl fecosterol content in total sterol composition at 0.5 times MIC by GC-MS analysis
# Candida albicans [16] = assay: Antifungal activity against Candida albicans isolate 12 harboring ERG3 W332R mutant gene assessed as 14alpha-methyl fecosterol content in total sterol composition at 0.5 times MIC by GC-MS analysis
# Candida albicans [17] = assay: Antifungal activity against Candida albicans isolate 488 harboring ERG3 H243N, T330A, A351V and ERG11 D225G, E266D, E391G, V488I mutant genes assessed as 14alpha-methyl fecosterol content in total sterol composition at 0.5 times MIC by GC-MS analysis
# Candida albicans [18] = assay: Antifungal activity against Candida albicans isolate 490 harboring ERG3 D147G, T330A, A351V and ERG11 F72S, T229A, E266D, N440S, V488I, R523G mutant genes assessed as 14alpha-methyl fecosterol content in total sterol composition at 0.5 times MIC by GC-MS analysis
# Candida albicans [19] = assay: Antifungal activity against Candida albicans isolate 1008 harboring ERG3 K97E, L193P, V237A, A351V, A353T and ERG11 E266D mutant genes assessed as 14alpha-methyl fecosterol content in total sterol composition at 0.5 times MIC by GC-MS analysis
# Candida albicans [20] = assay: Antifungal activity against Candida albicans isolate 177 assessed as 14alpha-methylergosta-8,24(28)-dien-3beta,6alpha-diol content in total sterol composition at 0.5 times MIC by GC-MS analysis
# Candida albicans [21] = assay: Antifungal activity against Candida albicans isolate 12 harboring ERG3 W332R mutant gene assessed as 14alpha-methylergosta-8,24(28)-dien-3beta,6alpha-diol content in total sterol composition at 0.5 times MIC by GC-MS analysis
# Candida albicans [22] = assay: Antifungal activity against Candida albicans isolate 488 harboring ERG3 H243N, T330A, A351V and ERG11 D225G, E266D, E391G, V488I mutant genes assessed as 14alpha-methylergosta-8,24(28)-dien-3beta,6alpha-diol content in total sterol composition at 0.5 times MIC by GC-MS analysis
# Candida albicans [23] = assay: Antifungal activity against Candida albicans isolate 490 harboring ERG3 D147G, T330A, A351V and ERG11 F72S, T229A, E266D, N440S, V488I, R523G mutant genes assessed as 14alpha-methylergosta-8,24(28)-dien-3beta,6alpha-diol content in total sterol composition at 0.5 times MIC by GC-MS analysis
# Candida albicans [24] = assay: Antifungal activity against Candida albicans isolate 14 assessed as lanosterol/obtusifoliol content in total sterol composition at 0.5 times MIC by GC-MS analysis
# Candida albicans [25] = assay: Antifungal activity against Candida albicans isolate 177 assessed as lanosterol/obtusifoliol content in total sterol composition at 0.5 times MIC by GC-MS analysis
# Candida albicans [26] = assay: Antifungal activity against Candida albicans isolate 12 harboring ERG3 W332R mutant gene assessed as lanosterol/obtusifoliol content in total sterol composition at 0.5 times MIC by GC-MS analysis
# Candida albicans [27] = assay: Antifungal activity against Candida albicans isolate 488 harboring ERG3 H243N, T330A, A351V and ERG11 D225G, E266D, E391G, V488I mutant genes assessed as lanosterol/obtusifoliol content in total sterol composition at 0.5 times MIC by GC-MS analysis
# Candida albicans [28] = assay: Antifungal activity against Candida albicans isolate 490 harboring ERG3 D147G, T330A, A351V and ERG11 F72S, T229A, E266D, N440S, V488I, R523G mutant genes assessed as lanosterol/obtusifoliol content in total sterol composition at 0.5 times MIC by GC-MS analysis
# Candida albicans [29] = assay: Antifungal activity against Candida albicans isolate 1008 harboring ERG3 K97E, L193P, V237A, A351V, A353T and ERG11 E266D mutant genes assessed as lanosterol/obtusifoliol content in total sterol composition at 0.5 times MIC by GC-MS analysis
# Candida albicans [30] = assay: Antifungal activity against Candida albicans isolate 6 assessed as eburicol content in total sterol composition at 0.5 times MIC by GC-MS analysis
# Candida albicans [31] = assay: Antifungal activity against Candida albicans isolate 177 assessed as eburicol content in total sterol composition at 0.5 times MIC by GC-MS analysis
# Candida albicans [32] = assay: Antifungal activity against Candida albicans isolate 12 harboring ERG3 W332R mutant gene assessed as eburicol content in total sterol composition at 0.5 times MIC by GC-MS analysis
# Candida albicans [33] = assay: Antifungal activity against Candida albicans isolate 488 harboring ERG3 H243N, T330A, A351V and ERG11 D225G, E266D, E391G, V488I mutant genes assessed as eburicol content in total sterol composition at 0.5 times MIC by GC-MS analysis
# Candida albicans [34] = assay: Antifungal activity against Candida albicans isolate 1008 harboring ERG3 K97E, L193P, V237A, A351V, A353T and ERG11 E266D mutant genes assessed as eburicol content in total sterol composition at 0.5 times MIC by GC-MS analysis
# Candida albicans [35] = assay: Antifungal activity against Candida albicans isolate 6 by broth microdilution method in presence of 10 uM drug efflux inhibitor FK506
# Candida albicans [36] = assay: Antifungal activity against Candida albicans isolate 14 by broth microdilution method in presence of 10 uM drug efflux inhibitor FK506
# Candida albicans [37] = assay: Antifungal activity against Candida albicans isolate 177 by broth dilution method in presence of 10 uM drug efflux inhibitor FK506
# Candida albicans [38] = assay: Antifungal activity against Candida albicans isolate 12 harboring ERG3 W332R mutant gene by broth microdilution method in presence of 10 uM drug efflux inhibitor FK506
# Candida albicans [39] = assay: Antifungal activity against Candida albicans isolate 488 harboring ERG3 H243N, T330A, A351V and ERG11 D225G, E266D, E391G, V488I mutant genes by broth microdilution method in presence of 10 uM drug efflux inhibitor FK506
# Candida albicans [40] = assay: Antifungal activity against Candida albicans isolate 490 harboring ERG3 D147G, T330A, A351V and ERG11 F72S, T229A, E266D, N440S, V488I, R523G mutant genes by broth microdilution method in presence of 10 uM drug efflux inhibitor FK506
# Candida albicans [41] = assay: Antifungal activity against Candida albicans isolate 1008 harboring ERG3 K97E, L193P, V237A, A351V, A353T and ERG11 E266D mutant genes by broth microdilution method in presence of 10 uM drug efflux inhibitor FK506
structure (smiles),measurement,setting,value
C[C@@H]1[C@H](O)[C@@H](C)/C=C/C=C/C=C/C=C/C=C/C=C/C=C/[C@H](O[C@@H]2O[C@H](C)[C@@H](O)[C@H](N)[C@@H]2O)C[C@@H]2O[C@](O)(C[C@@H](O)C[C@@H](O)[C@H](O)CC[C@@H](O)C[C@@H](O)CC(=O)O[C@H]1C)C[C@H](O)[C@H]2C(=O)O [AMPHOTERICIN B],MIC,Candida albicans [1],0.25 µg/mL
same,MIC,Candida albicans [2],0.25 µg/mL
same,MIC,Candida albicans [3],0.25 µg/mL
same,MIC,Candida albicans [4],0.5 µg/mL
same,MIC,Candida albicans [5],0.25 µg/mL
same,MIC,Candida albicans [6],0.25 µg/mL
same,MIC,Candida albicans [7],1 µg/mL
Clc1ccccc1C(c1ccccc1)(c1ccccc1)n1ccnc1 [CLOTRIMAZOLE],MIC,Candida albicans [1],1 µg/mL
same,MIC,Candida albicans [2],0.0625 µg/mL
same,MIC,Candida albicans [3],1 µg/mL
same,MIC,Candida albicans [4],1 µg/mL
same,MIC,Candida albicans [5],1 µg/mL
same,MIC,Candida albicans [6],1 µg/mL
same,MIC,Candida albicans [7],1 µg/mL
OC(Cn1cncn1)(Cn1cncn1)c1ccc(F)cc1F [FLUCONAZOLE],Activity,Candida albicans [8],74.5%
same,Activity,Candida albicans [9],89.4%
same,Activity,Candida albicans [10],76%
same,Activity,Candida albicans [11],2.6%
same,Activity,Candida albicans [12],7.2%
same,Activity,Candida albicans [13],3.5%
same,Activity,Candida albicans [14],1.7%
same,Activity,Candida albicans [15],2%
same,Activity,Candida albicans [16],64.3%
same,Activity,Candida albicans [17],55.6%
same,Activity,Candida albicans [18],69.2%
same,Activity,Candida albicans [19],74%
same,Activity,Candida albicans [20],6.5%
same,Activity,Candida albicans [21],1.6%
same,Activity,Candida albicans [22],14.3%
same,Activity,Candida albicans [23],13.7%
same,Activity,Candida albicans [24],10.6%
same,Activity,Candida albicans [25],10.6%
same,Activity,Candida albicans [26],18.3%
same,Activity,Candida albicans [27],15.2%
same,Activity,Candida albicans [28],13.7%
same,Activity,Candida albicans [29],14.4%
same,Activity,Candida albicans [30],5.4%
same,Activity,Candida albicans [31],4.9%
same,Activity,Candida albicans [32],11.6%
same,Activity,Candida albicans [33],7.7%
same,Activity,Candida albicans [34],9.8%
same,MIC,Candida albicans [1],256 µg/mL
same,MIC,Candida albicans [2],1 µg/mL
same,MIC,Candida albicans [3],256 µg/mL
same,MIC,Candida albicans [4],> 256 µg/mL
same,MIC,Candida albicans [5],> 256 µg/mL
same,MIC,Candida albicans [6],> 256 µg/mL
same,MIC,Candida albicans [7],> 256 µg/mL
same,MIC,Candida albicans [35],1 µg/mL
same,MIC,Candida albicans [36],1 µg/mL
same,MIC,Candida albicans [37],0.5 µg/mL
same,MIC,Candida albicans [38],> 256 µg/mL
same,MIC,Candida albicans [39],2 µg/mL
same,MIC,Candida albicans [40],2 µg/mL
same,MIC,Candida albicans [41],> 256 µg/mL
